These compounds were tested against HPK1 kinase (Homo sapiens (Human), UniProt Q92918) (assay: HPK1 kinase activity inhibition (ADP-Glo Kinase Assay)). Conditions: HPK1, MBP substrate, ATP, 25° C. 60 min.
Sequence of HPK1 kinase (Q92918 whole entry): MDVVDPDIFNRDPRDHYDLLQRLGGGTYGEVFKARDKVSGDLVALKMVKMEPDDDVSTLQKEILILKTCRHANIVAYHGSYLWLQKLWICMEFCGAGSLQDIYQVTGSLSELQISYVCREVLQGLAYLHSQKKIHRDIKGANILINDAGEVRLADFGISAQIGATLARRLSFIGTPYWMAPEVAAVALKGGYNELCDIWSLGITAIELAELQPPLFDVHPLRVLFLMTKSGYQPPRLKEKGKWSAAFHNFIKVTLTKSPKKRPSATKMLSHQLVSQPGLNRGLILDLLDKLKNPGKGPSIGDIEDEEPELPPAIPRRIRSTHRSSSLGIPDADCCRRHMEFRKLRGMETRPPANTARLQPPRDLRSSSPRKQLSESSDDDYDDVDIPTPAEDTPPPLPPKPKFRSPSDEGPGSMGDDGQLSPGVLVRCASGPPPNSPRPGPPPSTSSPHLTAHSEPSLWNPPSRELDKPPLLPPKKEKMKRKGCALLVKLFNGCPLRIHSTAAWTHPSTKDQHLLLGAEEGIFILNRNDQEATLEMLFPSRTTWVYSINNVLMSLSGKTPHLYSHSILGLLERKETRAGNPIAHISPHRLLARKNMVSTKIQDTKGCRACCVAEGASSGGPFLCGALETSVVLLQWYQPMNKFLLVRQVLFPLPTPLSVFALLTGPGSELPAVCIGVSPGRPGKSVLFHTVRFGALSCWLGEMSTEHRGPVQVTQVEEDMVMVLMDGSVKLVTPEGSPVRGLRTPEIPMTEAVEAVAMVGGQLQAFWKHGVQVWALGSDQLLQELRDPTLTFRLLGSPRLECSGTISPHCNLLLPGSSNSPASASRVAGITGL
Assay type: biochemical
Procedure: Test Example 1: Detection of Compound's Ability to Inhibit HPK1 Kinase Activity (Method 1)
The specific operation is as follows: configure the enzymatic reaction system buffer (10 mM MOPS, pH 7.2, 5 mM β-glycerol-phosphate, 10 mM MgCl2, 0.8 mM EDTA, 2 mM EGTA, 0.1 mM DTT); the test compound (1 mM the compound stock solution in DMSO) was diluted with buffer to the highest concentration of 60 uM (containing 6% DMSO), and the compound with a concentration of 60 μM was initially diluted 5 times with a buffer containing 6% DMSO for a total of 8 points of gradient concentration; then dilute HPK1 kinase to 30 nM in buffer. Add 2 μl of HPK1 kinase diluent to each well of a Greiner 384-well microplate (Cat. No. 784075), and add 2 μl of buffer to the control well; add 1 μl of the diluted compound to the reaction well after brief centrifugation, and add 1 μl buffer solution containing 6% DMSO to the control well; after short centrifugation, place in a 25° C. constant temperature incubator (Shanghai Yiheng Scientific Instrument Co., Ltd., Cat. No.: LRH-150) and incubate for 20 minutes. Add 3 μl of reaction substrate (10 μM MBP and 20 μM ATP dissolved in distilled water) to each well, briefly centrifuge and incubate in a constant temperature incubator at 25° C. for 60 min, and use ADP-Glo Kinase Assay Kit to detect the enzymatic reaction activity, ADP-Glo Kinase Assay Kit detection is carried out according to the operating instructions of the kit. Data are described using the half maximal inhibitory concentration IC50 of the compound.
`COc1nc2c(cc1Nc1ncc3cccc(-c4cccc(Cl)n4)c3n1)CN(C)CC2` [Example 40, 8-(6-chloropyridin-2-yl)-N-(2-methoxy-6-methyl-5,6,7,8-tetrahydro-1,6-naphthyridin-3-yl)quinazolin-2-amine] was tested, and the IC50 was < 0.1 nM. With `COc1nc2c(cc1Nc1ncc3ccnc(NCC(C)(C)C)c3n1)CN(C)CC2` [Example 41, N2-(2-methoxy-6-methyl-5,6,7,8-tetrahydro-1,6-naphthyridin-3-yl)-N8-neopentylpyrido[3,4-d]pyrimidine-2,8-diamine] the IC50 was < 0.1 nM. In the case of `COc1nc2c(cc1Nc1ncc3ccnc(N[C@@H](C)C(C)(C)C)c3n1)CN(C)CC2` [Example 42, (S)—N8-(3,3-dimethylbut-2-yl)-N2-(2-methoxy-6-methyl-5,6,7,8-tetrahydro-1,6-naphthyridin-3-yl)pyrido[3,4-d]pyrimidine-2,8-diamine], the IC50 is reported as < 0.1 nM. Work on `COc1nc2c(cc1Nc1ncc3ccnc(-c4cc(C)nn4C)c3n1)CN(C)CC2` [Example 43, 8-(1,3-Dimethyl-1H-pyrazol-5-yl)-N-(2-methoxy-6-methyl-5,6,7,8-tetrahydro-1,6-naphthyridin-3-yl)pyrido[3,4-d]pyrimidin-2-amine] yielded an IC50 of 4.67 nM. In the case of `CCOc1nc2c(cc1Nc1ncc3cccc(-c4ccccc4OC)c3n1)CN(C)CC2` [Example 44, N-(2-ethoxy-6-methyl-5,6,7,8-tetrahydro-1,6-naphthyridin-3-yl)-8-(2-methoxyphenyl)quinazolin-2-amine], the IC50 is reported as < 0.1 nM. For `COc1ccccc1-c1cccc2cnc(Nc3cnc4c(c3)CN(C)CC4)nc12` [Example 45, 8-(2-methoxyphenyl)-N-(6-methyl-5,6,7,8-tetrahydro-1,6-naphthyridin-3-yl)quinazolin-2-amine], the IC50 was < 0.1 nM. `COc1ccccc1-c1cccc2cnc(Nc3cc4c(nc3C)CCN(C)C4)nc12` [Example 46, N-(2,6-dimethyl-5,6,7,8-tetrahydro-1,6-naphthyridin-3-yl)-8-(2-methoxyphenyl)quinazoline-2-amine] gave an IC50 of 0.15 nM. In the case of `CCOc1nc2c(cc1Nc1ncc3cccc(-c4cccnc4OC)c3n1)CN(C)CC2` [Example 47, N-(2-ethoxy-6-methyl-5,6,7,8-tetrahydro-1,6-naphthyridin-3-yl)-8-(2-methoxypyridin-3-yl) quinazolin-2-amine], the IC50 is reported as 2.77 nM. `COc1ncccc1-c1cccc2cnc(Nc3cc4c(nc3C)CCN(C)C4)nc12` [Example 48, N-(2,6-dimethyl-5,6,7,8-tetrahydro-1,6-naphthyridin-3-yl)-8-(2-methoxypyridin-3-yl)quinazolin-2-amine] gave an IC50 of 1.93 nM. For `CN1CCc2[nH]c(=O)c(Nc3ncc4ccnc(N5CCOCC5)c4n3)cc2C1` [Example 49, 6-methyl-3-((8-morpholinopyrido[3,4-d]pyrimidin-2-yl)amino)-5,6,7,8-tetrahydro-1,6-naphthyridine-2(1H)-one], the IC50 was 26.9 nM. With `CCOc1nc2c(cc1Nc1ncc3ccnc(NCC(C)(C)C)c3n1)CN(C)CC2` [Example 52, N2-(2-ethoxy-6-methyl-5,6,7,8-tetrahydro-1,6-naphthyridin-3-yl)-N8-neopentylpyrido[3,4-d]pyrimidine-2,8-diamine] the IC50 was < 0.1 nM. For `COc1nc2c(cc1Nc1ncc3cccc(-c4cnn(C)c4C)c3n1)CN(C)CC2` [Example 53, 8-(1,5-dimethyl-1H-pyrazol-4-yl)-N-(2-methoxy-6-methyl-5,6,7,8-tetrahydro-1,6-Naphthyridin-3-yl)quinazolin-2-amine], the IC50 was < 0.1 nM. Compound `CCOc1nc2c(cc1Nc1ncc3cccc(-c4ccc(=O)n(C)c4)c3n1)CN(C)CC2` [Example 54, 5-(2-((2-ethoxy-6-methyl-5,6,7,8-tetrahydro-1,6-naphthyridin-3-yl)amino)quinazolin-8-yl)-1-methylpyridin-2(1H)-one] has an IC50 of 21.7 nM. For `CCOc1nc2c(cc1Nc1ncc3cccc(-c4cnn(C)c4C)c3n1)CN(C)CC2` [Example 55, 8-(1,5-dimethyl-1H-pyrazol-4-yl)-N-(2-ethoxy-6-methyl-5,6,7,8-tetrahydro-1,6-naphthyridin-3-yl)quinazolin-2-amine], the IC50 was 0.66 nM.
